Results as given in paper PMC4349960, “[^18F]FE@SUPPY: a suitable PET tracer for the adenosine A3 receptor? An in vivo study in rodents” (European Journal of Nuclear Medicine and Molecular Imaging, 2015).

Target: T1, A3R (Rattus norvegicus, UniProt P28647)
T1 construct: Adult male Sprague-Dawley rats; from tissue; host or cells: living Sprague-Dawley rats, brain volume of interest in PET
T1 sequence (P28647 1-320): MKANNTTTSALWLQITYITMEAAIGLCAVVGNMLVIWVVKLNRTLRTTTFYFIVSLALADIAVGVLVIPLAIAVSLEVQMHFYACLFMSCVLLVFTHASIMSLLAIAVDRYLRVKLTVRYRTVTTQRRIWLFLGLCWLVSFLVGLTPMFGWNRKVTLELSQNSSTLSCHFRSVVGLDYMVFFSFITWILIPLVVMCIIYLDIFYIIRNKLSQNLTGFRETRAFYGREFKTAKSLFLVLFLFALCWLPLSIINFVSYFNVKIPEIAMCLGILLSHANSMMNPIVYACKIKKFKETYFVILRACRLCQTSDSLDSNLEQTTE
Test: Small-animal PET in rats: baseline and A3R blocking scans
Assay type: in vivo
Conditions: baseline PET, 60 min
Excerpt: A microPET Focus220 scanner (Siemens, Medical Solutions) was used for the experiments. It has 168 detector modules providing a 7.6-cm axial and 22-cm transaxial field of view. The resolution of the reconstructed images (filtered back projection) was 1.3 mm (full-width at half-maximum) in the central field of view and remained under 2 mm within the central 5 cm diameter field of view. For PET imaging two groups of animals (rats and xenografted mice) were investigated. Rats were divided into four groups. The first group received vehicle (dimethyl sulphoxide, DMSO) intravenously via a lateral tail vein 30 min prior to radiotracer administration (three animals, 14.3 – 70.1 MBq, 0.2604 ± 0.06 μg). The second group received MRS1523 – a selective A3R antagonist – at a dose of 2 mg/kg body weight (dissolved in DMSO, 4 mg/mL) intravenously via a tail vein 30 min prior to radiotracer administration (three animals, 18.8 – 59.1 MBq, 0.3443 ± 0.05 μg). The third group received unlabelled title compound FE@SUPPY (dissolved in DMSO, 4 mg/mL) at a dose of 2 mg/kg 30 min before tracer administration (three animals, 9.7 – 16.1 MBq, 0.3926 ± 0.04 μg). In the final study group, the effect of P-glycoprotein inhibition was assessed by intravenous administration of 15 mg/kg TQD (freshly dissolved on each experimental day in 2.5 % aqueous dextrose solution and injected intravenously via a tail vein at a volume of 3 mL/kg over 1 min) 60 min prior to tracer administration (three animals, 13.9 – 26.8 MBq, 0.7451 ± 0.11 μg).
Anaesthetized animals were positioned in the imaging chamber of the microPET scanner, which was kept at 38 °C throughout the experiment. A stereotactic holder attached to the bed, consisting of ear plugs and a tooth bar, was used to fix the animal's head to ensure a reproducible position during the PET studies. [^18F]FE@SUPPY (27.91 ± 13.82 MBq) dissolved in 0.48 ± 0.22 mL phosphate-buffered saline (pH 7.4) was administered as a bolus via a tail vein. Dynamic PET imaging was performed over 60 min in all animals. At the end of the PET scan the animals were killed, a terminal blood sample was collected and whole brains were removed for testing of metabolite stability.
For all PET scans (rats and xenografted mice), list mode data were acquired with an energy window of 350 – 750 keV (rats) or 250 – 750 keV (mice) and a 6-ns timing window. Before each PET scan, a transmission scan using a ^57Co point source was recorded over 10 min. The PET data from the 60-min dynamic scans were sorted into three-dimensional sinograms according to the following frame sequence: 6 × 20 s, 5 × 60 s, 4 × 120 s, 3 × 300 s and 3 × 600 s. For the 90-min scans (in the xenografted mice) the following frame sequence was used: 8 × 5 s, 2 × 10 s, 2 × 30 s, 3 × 60 s, 2 × 150 s, 2 × 300 s, 4 × 600 s and 2 × 900 s. PET images were reconstructed by Fourier rebinning followed by filtered back projection with a ramp filter. The resulting voxel size was 0.6 × 0.6 × 0.8 mm for rats or 0.4 × 0.4 × 0.8 mm for mice. The standard data correction protocol (normalization, attenuation and decay correction) was applied to the data. A calibration factor for converting units of microPET images into absolute radioactivity concentration units was first generated by imaging a phantom filled with a known concentration of [^18F]FDG.
Rat brains were manually outlined on multiple planes of the PET summation images using the image analysis software PMOD 3.1 (Pmod Ltd, Zürich, Switzerland) or Amide. Volumes of interest in the brain or solid tissue mass (xenografts) were transferred to the PET images of the individual time frames and time–activity curves (TACs) expressed in units of kilobecquerels per millilitre were calculated. To facilitate comparison of TACs of different animals, radioactivity concentrations were normalized to dose and weight and expressed as standardized uptake value (SUV, %ID/cm^3 or %ID/g). […]

CCSC(=O)c1c(CC)nc(-c2ccccc2)c(C(=O)OCC[18F])c1CC [[^18F]FE@SUPPY, 5-(2-[^18F]fluoroethyl)-2,4-diethyl-3-(ethylsulfanylcarbonyl)-6-phenylpyridine-5-carboxylate]
tracer uptake in fat-rich regions (harderian and lacrimal glands): high uptake
tracer uptake in the brain: low uptake
